Results from BigSolDB 2.1.

CCCc1nc(C(C)(C)O)c(C(=O)OCC)n1Cc1ccc(-c2ccccc2-c2nnnn2C(c2ccccc2)(c2ccccc2)c2ccccc2)cc1
solubility (mole fraction)
Conditions	278.15 K	283.15 K	288.15 K	293.15 K	298.15 K	303.15 K	308.15 K	313.15 K	318.15 K
in DMAc	0.00501	0.00574	0.00655	0.00756	0.00872	0.01	0.0114	0.0129	0.0148
in DMF	0.00117	0.00148	0.00186	0.00229	0.0028	0.00337	0.004	0.00471	0.00553
in acetone	0.000617	0.000854	0.00115	0.00154	0.00197	0.00242	0.0029	0.0035	0.00417
in acetonitrile	0.00027	0.000315	0.000373	0.00044	0.000513	0.000597	0.000689	0.00079	0.000901
in cyclohexanone	0.00729	0.00844	0.00967	0.0112	0.0128	0.0147	0.0166	0.0187	0.0211
in ethanol	8.35e-05	0.000102	0.000124	0.000147	0.000174	0.000206	0.000239	0.000277	0.000318
in ethyl acetate	0.00177	0.0021	0.00256	0.00308	0.00372	0.00445	0.00523	0.00607	0.00699
in isobutanol	0.00012	0.000145	0.000177	0.000216	0.000255	0.000302	0.000352	0.000408	0.000472
in isopropanol	5.42e-05	6.87e-05	8.5e-05	0.000102	0.000122	0.000144	0.00017	0.000197	0.000228
in methanol	4.18e-05	5.35e-05	6.64e-05	8.11e-05	9.59e-05	0.000112	0.000131	0.000152	0.000175
in n-butanol	0.000177	0.000211	0.000253	0.000298	0.000348	0.000401	0.000458	0.000521	0.000588
in n-propanol	0.000144	0.000175	0.000213	0.000253	0.000298	0.000346	0.000397	0.000454	0.000519
in toluene	0.00257	0.0032	0.00403	0.00503	0.00608	0.00738	0.00882	0.0104	0.0124
